Patent publication US11629154B2, “Tetrahydropyranooxazine derivatives having selective BACE1 inhibitory activity” (SHIONOGI & CO., LTD., priority 2018, dated 2023)

Legend:
[1] = tested on: Abeta 1-42 in cerebrospinal fluid (CSF); assay: Pharmacology in the beagle dog: beta-amyloid profile in CSF; format: in vivo
Protocol: Test compounds were tested to evaluate the effect on the beta-amyloid profile in cerebrospinal fluid (CSF) of dogs after a single dose, in combination with pharmacokinetic (PK) follow up and limited safety evaluation.
In the case of compounds shown below, two or 4 beagle dogs (1 or 2 male, 1 or 2 female) were dosed with vehicle (1 mL/kg of an aqueous solution of 20% cyclodextrin) and 4 beagle dogs (2 males and 2 females) per dose group were dosed with test compound at the doses indicated in Table 20 in an aqueous 20% cyclodextrin solution with a concentration in mg/mL identical to the dose given in mg/kg) on an empty stomach.
CSF was taken in conscious animals directly from the lateral ventricle via a cannula which was screwed in the skull and covered with subcutaneous tissue and skin, before and at 4, 8, 25 and 49 hours after dosing. Eight hours after dosing the animals got access to their regular meal for 30 minutes. Blood was taken for PK follow up (0.5, 1, 2, 4, 8, 25 and 49 hours) and serum samples for biochemistry were taken before and at 8 and 25h after dosing. The CSF samples were used for measurement of Abeta 1-37, Abeta 1-38, Abeta 1-40 and Abeta 1-42.

[2] = molecular target: human ether-a-go-go related gene (hERG) channel (Homo sapiens (Human), UniProt Q12809); assay: hERG test; format: cell-based; settings: CHO cells expressing hERG
From the text: For the purpose of assessing risk of an electrocardiogram QT interval prolongation, effects on delayed rectifier K+ current (IKr), which plays an important role in the ventricular repolarization process of the compound of the present invention, was studied using CHO cells expressing human ether-a-go-go related gene (hERG) channel.
A cell was retained at a membrane potential of −80 mV by whole cell patch clamp method using an automated patch clamp system (QPatch; Sophion Bioscience A/S). After application of leak potential at −50 mV, IKr induced by depolarization pulse stimulation at +20 mV for 2 seconds and, further, repolarization pulse stimulation at −50 mV for 2 seconds was recorded.
Further, the % inhibition relative to the tail peak current before application of the compound of the present invention was calculated, and compared with the vehicle-applied group (0.1% dimethyl sulfoxide solution) to assess influence of the compound of the present invention on IKr.

[3] = molecular target: P-gp (MDR1 expressing LLC-PK1 cells) (Homo sapiens (Human), UniProt P08183); assay: P-gp substrate test; format: in vitro ADME; settings: MDR1/LLC-PK1 versus LLC-PK1
Protocol: 1. MDR1 expressing LLC-PK1 cells and its parent cells were routinely cultured in Medium A (Medium 199 (Invitrogen) supplemented with 10% FBS (Invitrogen), gentamycin (0.05 mg/mL, Invitrogen) and hygromycin B (100 μg/mL, Invitrogen)) at 37° C. under 5% CO2/[…] gasses. For the transport experiments, these cells were seeded on Transwell (Registered trademark) insert (96-well, pore size: 0.4 μm, Coaster) at a density of 1.4×10^4 cells/insert and added Medium B (Medium 199 supplemented with 10% FBS and gentamycin at 0.05 mg/mL) to the feeder tray. These cells were incubated in a CO2 incubator (5% CO2/[…] gasses, 37° C.) and replace apical and basolateral culture medium every 48-72 hr after seeding. These cells were used between 4 and 6 days after seeding. 2. The medium in the culture insert seeded with MDR1 expressing cells or parent cells were removed by aspiration and rinsed by HBSS. The apical side (140 μL) or basolateral side (175 μL) was replaced with transport buffer containing reference substrates and the present invention and then an aliquot (50 μL) of transport buffer in the donor side was collected to estimate initial concentration of reference substrate and the present invention. After incubation for designed time at 37° C., an aliquot (50 μL) of transport buffer in the donor and receiver side were collected. Assay was performed by duplicate or triplicate. 3. Reference substrate and the present invention in the aliquot was quantified by LC/MS/MS.
Permeated amounts across monolayers of MDR1 expressing and parent cells were determined, and permeation coefficients (Pe) were calculated using Excel 2003 from the following equitation: Pe (cm/sec)=Permeated amount (pmol)/area of cell membrane (cm^2)/initial concentration (nM)/incubation time (sec) Where, permeated amount was calculated from permeation concentration (nM, concentration of the receiver side) of the substance after incubation for the defined time (sec) multiplied by volume (mL) and area of cell membrane was used 0.1433 (cm2).
The efflux ratio was calculated using the following equation: Efflux Ratio=Basolateral-to-Apical Pe/Apical-to-Basolateral Pe The net flux was calculated using the following equation: Net flux=Efflux Ratio in MDR1 expressing cells/Efflux Ratio in parent cells

Chain of P-gp (MDR1 expressing LLC-PK1 cells) (P08183 whole entry): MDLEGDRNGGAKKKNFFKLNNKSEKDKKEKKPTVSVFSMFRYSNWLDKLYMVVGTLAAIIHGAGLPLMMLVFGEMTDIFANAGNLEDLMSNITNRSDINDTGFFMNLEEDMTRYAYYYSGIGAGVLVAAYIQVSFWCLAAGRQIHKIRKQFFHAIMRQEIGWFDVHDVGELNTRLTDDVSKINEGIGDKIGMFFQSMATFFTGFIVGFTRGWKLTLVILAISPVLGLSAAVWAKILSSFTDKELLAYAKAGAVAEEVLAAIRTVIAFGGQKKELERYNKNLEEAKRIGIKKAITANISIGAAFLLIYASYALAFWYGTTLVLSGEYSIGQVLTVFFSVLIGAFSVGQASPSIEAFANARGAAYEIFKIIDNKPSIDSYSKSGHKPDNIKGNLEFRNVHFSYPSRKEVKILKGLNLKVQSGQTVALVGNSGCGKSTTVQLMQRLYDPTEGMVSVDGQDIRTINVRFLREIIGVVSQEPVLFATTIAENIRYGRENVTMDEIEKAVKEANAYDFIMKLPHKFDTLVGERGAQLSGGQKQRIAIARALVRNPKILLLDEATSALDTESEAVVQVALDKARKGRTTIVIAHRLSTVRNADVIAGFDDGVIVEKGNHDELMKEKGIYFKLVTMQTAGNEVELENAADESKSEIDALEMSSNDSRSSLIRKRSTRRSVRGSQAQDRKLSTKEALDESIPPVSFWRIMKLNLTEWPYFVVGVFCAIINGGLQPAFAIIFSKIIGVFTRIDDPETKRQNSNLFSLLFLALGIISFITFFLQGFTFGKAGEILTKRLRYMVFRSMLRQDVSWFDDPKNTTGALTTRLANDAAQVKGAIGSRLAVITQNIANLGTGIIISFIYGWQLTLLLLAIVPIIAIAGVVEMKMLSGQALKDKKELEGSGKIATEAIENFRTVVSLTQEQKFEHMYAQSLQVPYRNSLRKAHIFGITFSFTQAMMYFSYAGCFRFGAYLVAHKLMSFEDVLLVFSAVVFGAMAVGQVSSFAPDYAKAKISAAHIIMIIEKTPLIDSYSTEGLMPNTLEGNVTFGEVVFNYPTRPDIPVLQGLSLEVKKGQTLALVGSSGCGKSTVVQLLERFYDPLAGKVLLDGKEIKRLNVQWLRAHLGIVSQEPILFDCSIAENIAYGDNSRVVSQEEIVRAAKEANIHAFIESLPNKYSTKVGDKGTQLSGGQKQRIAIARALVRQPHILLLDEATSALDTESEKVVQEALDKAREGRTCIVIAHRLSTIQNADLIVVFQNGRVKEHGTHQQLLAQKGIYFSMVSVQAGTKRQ
Chain of human ether-a-go-go related gene (hERG) channel (Q12809 whole entry): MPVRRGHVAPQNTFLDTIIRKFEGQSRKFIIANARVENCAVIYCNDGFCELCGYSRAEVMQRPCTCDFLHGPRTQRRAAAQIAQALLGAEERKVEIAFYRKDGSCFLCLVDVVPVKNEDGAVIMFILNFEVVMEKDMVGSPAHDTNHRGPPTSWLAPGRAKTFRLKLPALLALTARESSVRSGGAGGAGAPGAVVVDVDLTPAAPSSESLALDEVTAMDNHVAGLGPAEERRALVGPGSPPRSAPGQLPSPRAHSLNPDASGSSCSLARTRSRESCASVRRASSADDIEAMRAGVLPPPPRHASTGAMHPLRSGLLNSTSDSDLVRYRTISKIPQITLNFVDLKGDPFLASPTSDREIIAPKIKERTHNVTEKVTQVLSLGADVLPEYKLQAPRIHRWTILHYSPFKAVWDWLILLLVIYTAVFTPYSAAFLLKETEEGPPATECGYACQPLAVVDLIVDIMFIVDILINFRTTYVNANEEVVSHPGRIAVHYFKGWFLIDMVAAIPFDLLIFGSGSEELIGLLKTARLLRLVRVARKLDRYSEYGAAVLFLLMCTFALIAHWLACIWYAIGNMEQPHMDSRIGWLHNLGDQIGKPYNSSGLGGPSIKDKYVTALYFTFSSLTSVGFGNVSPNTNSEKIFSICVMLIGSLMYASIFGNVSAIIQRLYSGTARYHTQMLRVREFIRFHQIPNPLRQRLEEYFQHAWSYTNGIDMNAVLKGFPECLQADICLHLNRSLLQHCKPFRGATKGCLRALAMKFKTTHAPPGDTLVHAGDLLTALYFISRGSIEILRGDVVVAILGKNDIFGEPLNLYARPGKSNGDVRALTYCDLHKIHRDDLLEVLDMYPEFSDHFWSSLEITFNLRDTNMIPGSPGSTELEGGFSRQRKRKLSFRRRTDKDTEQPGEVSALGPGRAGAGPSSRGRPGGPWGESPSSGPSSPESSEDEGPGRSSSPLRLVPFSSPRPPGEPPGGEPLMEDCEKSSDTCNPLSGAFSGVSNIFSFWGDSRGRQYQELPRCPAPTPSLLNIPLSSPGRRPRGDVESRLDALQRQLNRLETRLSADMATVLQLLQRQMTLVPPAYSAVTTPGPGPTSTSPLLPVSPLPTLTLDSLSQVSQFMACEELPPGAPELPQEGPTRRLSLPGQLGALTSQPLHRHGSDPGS

| SMILES | P-gp ER ratio [3] | % Decrease in Abeta 1-42 at 8 h post dosing compared to own baseline ([1]; single dose 0.31 mg/kg) | % Decrease in Abeta 1-42 at 8 h post dosing compared to own baseline ([1]; single dose 0.63 mg/kg) | hERG inhibition (%) at 3 μM [2] | % Decrease in Abeta 1-42 at 24 h^(a) or 25 h^(b) post dosing compared to own baseline ([1]; single dose 0.63 mg/kg) | also measured |
| --- | --- | --- | --- | --- | --- | --- |
| C[C@@H]1C[C@H]2OC(N)=N[C@](CF)(c3cc(NC(=O)c4cnc(OCF)cn4)ccc3F)[C@H]2CO1 [Compound I-008] | 6.2 | −57% | −58% | 18.5% | −48% | % Decrease in Abeta 1-42 at 24 h^(a) or 25 h^(b) post dosing compared to own baseline ([1]; single dose 0.31 mg/kg): −28%; % Decrease in Abeta 1-42 at 49 h post dosing compared to own baseline ([1]; single dose 0.31 mg/kg): −25%; % Decrease in Abeta 1-42 at 8 h post dosing compared to own baseline ([1]; single dose 2.5 mg/kg): −81%; % Decrease in Abeta 1-42 at 24 h^(a) or 25 h^(b) post dosing compared to own baseline ([1]; single dose 2.5 mg/kg): −76%; % Decrease in Abeta 1-42 at 49 h post dosing compared to own baseline ([1]; single dose 2.5 mg/kg): −49% |
| NC1=N[C@](CF)(c2cc(NC(=O)c3cnc(-n4cncn4)cn3)ccc2F)[C@H]2COCC[C@H]2O1 [Compound I-047] | 4.7 | – | – | 11.6% | – | – |
| NC1=N[C@](CF)(c2cc(NC(=O)c3cnc(OCF)cn3)ccc2F)[C@H]2COCC[C@H]2O1 [Compound I-007] | 5.5 | −61% | −69% | 6.83% | −48% | % Decrease in Abeta 1-42 at 24 h^(a) or 25 h^(b) post dosing compared to own baseline ([1]; single dose 0.31 mg/kg): −23%; % Decrease in Abeta 1-42 at 8 h post dosing compared to own baseline ([1]; single dose 3.75 mg/kg): −64%; % Decrease in Abeta 1-42 at 24 h^(a) or 25 h^(b) post dosing compared to own baseline ([1]; single dose 3.75 mg/kg): −82%; % Decrease in Abeta 1-42 at 49 h post dosing compared to own baseline ([1]; single dose 3.75 mg/kg): −40% |

Now from value to compound, other results behind:

| P-gp ER ratio [3] | SMILES | % Decrease in Abeta 1-42 at 8 h post dosing compared to own baseline ([1]; single dose 0.31 mg/kg) | % Decrease in Abeta 1-42 at 8 h post dosing compared to own baseline ([1]; single dose 0.63 mg/kg) | hERG inhibition (%) at 3 μM [2] | % Decrease in Abeta 1-42 at 24 h^(a) or 25 h^(b) post dosing compared to own baseline ([1]; single dose 0.63 mg/kg) | also measured |
| --- | --- | --- | --- | --- | --- | --- |
| 6.2 | NC1=N[C@](CF)(c2cc(NC(=O)c3cnc(OC(F)F)cn3)ccc2F)[C@H]2COCC[C@H]2O1 [Compound I-076] | −68% | −65% | 18.5% | – | – |
| 6.1 | COc1cnc(C(=O)Nc2ccc(F)c([C@@]3(CF)N=C(N)O[C@@H]4CCOC[C@@H]43)c2)cn1 [Compound I-067] | −36% | −64% | 5.39% | – | – |
| 7.1 | NC1=N[C@](CF)(c2cc(NC(=O)c3ccc(C(F)(F)F)cn3)ccc2F)[C@H]2COCC[C@H]2O1 [Compound I-105] | – | – | 40.8% | – | – |
| 5.7 | C[C@@H]1C[C@H]2OC(N)=N[C@](CF)(c3cc(NC(=O)c4cnc(OCF)cn4)ccc3Cl)[C@H]2CO1 [Compound I-065] | – | −49% | 37.8% | −52% | % Decrease in Abeta 1-42 at 49 h post dosing compared to own baseline ([1]; single dose 0.63 mg/kg): −20%; % Decrease in Abeta 1-42 at 8 h post dosing compared to own baseline ([1]; single dose 1.25 mg/kg): −59%; % Decrease in Abeta 1-42 at 24 h^(a) or 25 h^(b) post dosing compared to own baseline ([1]; single dose 1.25 mg/kg): −56%; % Decrease in Abeta 1-42 at 49 h post dosing compared to own baseline ([1]; single dose 1.25 mg/kg): −34% |
